According to ChEMBL document CHEMBL1201862, “PubChem BioAssay data set” (2004):
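Assay format: 96-well plates, 48-hour exposure. Here, GI50 denotes the concentration required for 50% inhibition of growth.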 Activity calls are given as the source filed them. Cut-off read from the data, not from the text of the source: active = GI50 up to about 1.1 µM and inactive = higher.

Key:
Experiment in all cases: NCI-60 cell line screen, 48 h
SNB-75 = system: SNB-75
ACHN = system: ACHN
OVCAR-4 = system: OVCAR-4
RXF 393 = system: RXF 393
UO-31 = system: UO-31
NCI-H460 = system: NCI-H460
COLO 205 = system: COLO 205
SK-MEL-5 = system: SK-MEL-5
CCRF-CEM = system: CCRF-CEM
T47D = system: T47D
UACC-257 = system: UACC-257
HL-60 = system: HL-60
OVCAR-5 = system: OVCAR-5
HOP-62 = system: HOP-62
SNB-19 = system: SNB-19
DU-145 = system: DU-145
PC-3 = system: PC-3
NCI/ADR-RES = system: NCI/ADR-RES
SN12C = system: SN12C
Hs-578T = system: Hs-578T

| SMILES | GI50 (SNB-75) | GI50 (ACHN) | GI50 (OVCAR-4) | GI50 (RXF 393) | GI50 (UO-31) | GI50 (NCI-H460) | GI50 (COLO 205) | GI50 (SK-MEL-5) | GI50 (CCRF-CEM) | GI50 (T47D) | GI50 (UACC-257) | GI50 (HL-60) | GI50 (OVCAR-5) | GI50 (HOP-62) | GI50 (SNB-19) | GI50 (DU-145) | GI50 (PC-3) | GI50 (NCI/ADR-RES) | GI50 (SN12C) | GI50 (Hs-578T) |
| --- | --- | --- | --- | --- | --- | --- | --- | --- | --- | --- | --- | --- | --- | --- | --- | --- | --- | --- | --- | --- |
| Cc1c(O)ccc2c(O)c(NC(=O)c3ccc4c(c3)CCC(C)(C)O4)c(=O)oc12 [CYCLONOVOBIOCIC ACID] | > 100 µM (inactive) | > 100 µM (inactive) | > 100 µM (inactive) | > 100 µM (inactive) | > 100 µM (inactive) | > 100 µM (inactive) | > 100 µM (inactive) | > 100 µM (inactive) | > 100 µM (inactive) | > 100 µM (inactive) | > 100 µM (inactive) | > 100 µM (inactive) | > 100 µM (inactive) | > 100 µM (inactive) | > 100 µM (inactive) | > 100 µM (inactive) | > 100 µM (inactive) | > 100 µM (inactive) | > 100 µM (inactive) | > 100 µM (inactive) |
| CN(Cc1cnc2nc(N)nc(N)c2n1)c1ccc(C(=O)N[C@@H](CCC(=O)O)C(=O)O)cc1 [METHOTREXATE] | 21.7 µM (inactive) | 0.0385 µM (active) | 59.6 µM (inactive) | 20.7 µM (inactive) | 0.227 µM (active) | 0.028 µM (active) | 1.19 µM (inactive) | 0.09 µM (active) | 0.0296 µM (active) | 28 µM (inactive) | 0.836 µM (active) | 0.043 µM (active) | 0.916 µM (active) | 0.0403 µM (active) | 0.59 µM (active) | 0.0476 µM (active) | 0.0865 µM (active) | 0.0929 µM (active) | 0.0321 µM (active) | 192 µM (inactive) |
| CC(C)=CCC/C(C)=C/CC/C(C)=C/CSc1ccccc1C(=O)O [SALIRASIB] | 19.1 µM (inactive) | 37.7 µM (inactive) | 36.9 µM (inactive) | 27.2 µM (inactive) | > 10 µM (inactive) | 17.4 µM (inactive) | 23.6 µM (inactive) | 14.8 µM (inactive) | 28.3 µM (inactive) | > 10 µM (inactive) | 34.8 µM (inactive) | 29.7 µM (inactive) | 19.2 µM (inactive) | 16.9 µM (inactive) | 21 µM (inactive) | 18.2 µM (inactive) | 19.3 µM (inactive) | 22.5 µM (inactive) | 23.3 µM (inactive) | 17.8 µM (inactive) |
